Source: patent publication US10468722B2, “Organic synthesis applications of non-aqueous fluoride salt solutions” (CALIFORNIA INSTITUTE OF TECHNOLOGY, priority 2015, dated 2019)

Key:
physchem = conditions: for Solubility in fluorinated solvents (in words): 3-fluorobenzonitrile and BTFE, useful concentrations e.g. >0.05 M; for Solubility vs. TMAF: in 3-fluorobenzonitrile, relative to TMAF; for solubility: organic solvent or mixture
Description: NpMe3NF is determined to be soluble in a given solvent if the concentration of NpMe3NF dissolved within the solvent is greater than 0.05 M.

[1] = NpMe3NF stability in various solvents by 1H and 19F NMR; format: physicochemical
Description: NpMe3NF stability in various solvents is analyzed by ^1H and ^19F NMR measurements. Preliminary criteria used for a solvent being “chemically stable” to the F^− ion are observation of a clear, sharp peak in the ^19F spectrum, alongside a 1:1:1 triplet arising from the DF2^− formation from the deuterated acetonitrile solvent (CD3CN).

[2] = in 2,6-difluoropyridine (2,6-F2Py)
[3] = in 3-methoxypropionitrile (3-MeOPN)

Which “Solubility in fluorinated solvents (in words)” value (physchem) does the source give for `CC(C)(C)C[N+](C)(C)CC(C)(C)C.[F-]` [Np2Me2NF, bis(2,2-dimethylpropyl)dimethylammonium fluoride] here?
The value was “significantly higher solubility”.

What about the “Solubility vs. TMAF” value (physchem) of the same compound?
Its value is over 10x.

And the solubility (physchem)?
Its solubility is 340 mM.

Which results are given for `CC(C)(C)C[N+](C)(C)C.[F-]` [NpMe3NF, (2,2-dimethylpropyl)trimethylammonium fluoride]?
Solubility in fluorinated solvents (in words) (physchem): significantly higher solubility; Approximate Solubility (physchem; in 1,3-Dimethyl-3,4,5,6-tetrahydro-2(1H)-pyrimidinone (DMPU)): 110 mM; Approximate Solubility (physchem; in 2,2,2-trifluoroethyl trifluoroacetate (TFE-TFA)): 950 mM; Approximate Solubility (physchem; in 2,3-difluorobenzonitrile (2,3-F2BN)): 400 mM; Approximate Solubility (physchem; [2]): 390 mM; Approximate Solubility (physchem; in 2-fluorobenzonitrile (2-FBN)): 120 mM; Approximate Solubility (physchem; in 3-fluorobenzonitrile (3-FBN)): 190 mM; Solubility vs. TMAF (physchem): >6x; Approximate Solubility (physchem; [3]): 780 mM; Approximate Solubility (physchem; in (Dimethylamino)acetonitrile (DMAN)): 140 mM; Approximate Solubility (physchem; in Fluoroethylene carbonate (FEC)): 710 mM; Approximate Solubility (physchem; in Tris(2,2,2-trifluoroethyl)phosphite (TTFP)): 1050 mM; Approximate Solubility (physchem; in methoxyacetonitrile (MeOAN)): 800 mM; Approximate Solubility (physchem; in phenyl trifluoroacetate (PhTFA)): 470 mM; Approximate Solubility (physchem; in propionitrile (PN)): 70 mM; solubility (physchem): 190 mM; Stability (1H and 19F NMR) [1, 2]: good stability; Stability (1H and 19F NMR) [1, 3]: poor stability; Stability (1H and 19F NMR) ([1]; in BTFE): good stability; Stability (1H and 19F NMR) ([1]; in Bis(2,2,2-trifluoroethyl) carbonate (BTFEC)): poor stability; Stability (1H and 19F NMR) ([1]; in propionitrile (PN)): good stability
